Measured values from patent US5051419A, “Prevention or elimination of mycoplasma contamination of animal or plant cell cultures” (Dainippon Pharmaceutical Co., Ltd., priority 1988, dated 1991).

Columns and labels:
[1] = system: mycoplasma; conditions: in words, background; cited from earlier work
[2] = system: mycoplasma; test: Activity of eliminating spontaneously contaminated mycoplasmas, Test Example 4 as a whole; assay type: cell-based
Experimental: The activity of test compound to eliminate mycoplasma contamination was tested as in Test Example 3 on spontaneously contaminated human lung carcinoma cells [I] and human melanoma cells [II].
The period during which the cultivation was continued in the presence of the test chemicals was 7 days, and the mycoplasma species which infected the cells were unknown.

[3] = system: chromosomes of animals or plants; test: Deleterious effects on chromosomes; conditions: in words

SMILES | minimum growth inhibitory concentration (MIC) for mycoplasma [1] | mode of action on mycoplasma [1] | minimal effective concentration ([2]; Mycoplasma, 168 h, spontaneously contaminated cells [I] and [II]) | mycoplasma eliminating concentration relative to control compound 1 ([2]; fraction of that of control compound 1) | mycoplasma eliminating concentration relative to control compound 2 (ciprofloxacin) ([2]; fraction of that of control compound 2) | deleterious effects on chromosomes [3]
CN(C)c1ccc(O)c2c1C[C@H]1C[C@H]3[C@H](N(C)C)C(O)=C(C(N)=O)C(=O)[C@@]3(O)C(O)=C1C2=O [Compound 3, minocycline] | low | only act bacteriostatically and not mycoplasmacidally |  |  |  | 
NCC1CN(c2c(F)c(N)c3c(=O)c(C(=O)O)cn(C4CC4)c3c2F)CCO1 (stereo not drawn) [Compound A, 5-amino-7-(2-aminomethylmorpholino)-1-cyclopropyl-6,8-difluoro-1,4-dihydro-4-oxoquinoline-3-carboxylic acid] |  |  | 0.2 µg/mL | 1/2 | 1/32 | excellent
